Test [1] concerns D8 (DNA, duplex) CTAGCTAG
The test is described as follows: 1H NMR. The settings on record: Na+ 10 mM (NaCl); 2.5 mM cacodylate pH 5.0; intercalation at TA/TA.

Test [2] deals with B2; d(CGCTAGCG)2 (DNA, duplex) CGCTAGCG
The test is described as follows: UV-VIS titration, chemometric (PCA) Scatchard analysis. The conditions noted are these: Na+ 10 mM (NaCl); 2.5 mM cacodylate pH 5.0; 0.01 mM ligand; microscopic constant.

In test [3] the test system is D3; d(CCCTAGGG)2 (DNA, duplex) CCCTAGGG
The test is described as follows: 2D NMR (NOESY) and restrained MD structure. The conditions noted are these: Na+ 10 mM (NaCl); 2.5 mM cacodylate pH 5.0; 5 °C; intercalation at TA/TA.

Test [4] has as its system B3; D2; d(CGATATCG)2 (DNA, duplex) CGATATCG
As to the kind of experiment: UV-VIS titration, chemometric (PCA) Scatchard analysis. The conditions noted are these: Na+ 10 mM (NaCl); 2.5 mM cacodylate pH 5.0; 0.01 mM ligand; microscopic constant.

The subject of test [5] is D1 (DNA, duplex) CCCGGG. As to the kind of experiment: 1H NMR. The settings on record: Na+ 10 mM (NaCl); 2.5 mM cacodylate pH 5.0; intercalation at CG/CG.
Test [6] relates to B3; D2; d(CGATATCG)2 (DNA, duplex) CGATATCG
The test is described as follows: 2D NMR (NOESY) and restrained MD structure. The conditions noted are these: Na+ 10 mM (NaCl); 2.5 mM cacodylate pH 5.0; 5 °C; intercalation at TA/TA.

Test [7] relates to D4 (DNA, duplex) GGGTACCC
The test is described as follows: 1H NMR. The settings on record: Na+ 10 mM (NaCl), 2.5 mM cacodylate pH 5.0.

Test [8] concerns B1; d(CGGTACCG)2 (DNA, duplex) CGGTACCG
The test is described as follows: UV-VIS titration, chemometric (PCA) Scatchard analysis. The settings on record: Na+ 10 mM (NaCl); 2.5 mM cacodylate pH 5.0; 0.01 mM ligand; microscopic constant.

For test [9], the system named is D7 (DNA, duplex) GTACGTAC
As to the kind of experiment: 1H NMR. The conditions noted are these: Na+ 10 mM (NaCl); 2.5 mM cacodylate pH 5.0; intercalation at TA/TA.

Test [10] concerns B3; D2; d(CGATATCG)2 (DNA, duplex) CGATATCG
As to the kind of experiment: 1H NMR titration. The settings on record: Na+ 10 mM (NaCl), 2.5 mM cacodylate pH 5.0, unspecific.

For test [11], the system named is B4; d(CGTTAACG)2 (DNA, duplex) CGTTAACG
The test is described as follows: UV-VIS titration, chemometric (PCA) Scatchard analysis. The settings on record: Na+ 10 mM (NaCl); 2.5 mM cacodylate pH 5.0; 0.01 mM ligand; microscopic constant.

For test [12], the system named is B2; d(CGCTAGCG)2 (DNA, duplex) CGCTAGCG
As to the kind of experiment: 2D NMR (NOESY) and restrained MD structure. The settings on record: Na+ 10 mM (NaCl); 2.5 mM cacodylate pH 5.0; 5 °C; intercalation at TA/TA.

[13] abbreviates: unspecific, no intercalation site, duplex:ligand 1:1.5.

With `CCN(CC)CCNc1ccc2ncn3c4ccc(O)cc4c(=O)c1c23`, the binding result in test [1], in test [3], in test [5], in [6], in test [7] (intercalation at TA/TA) and in test [9] was “yes” throughout. The Dissociation constant turned out to be 0.260 µM in test [2], 0.156 µM in [4] and 0.524 µM in test [8].

On to `CN(C)CCCNc1c2ccccc2nc2cccc([N+](=O)[O-])c12`, for which the binding entry is “weak” in test [10] (presumably minor groove at centre, no defined intercalation) and “weak” in test [7] (setting [13]).

As to `CN(C)CCCNc1ccc2nnn3c4ccc(O)cc4c(=O)c1c23`, the Dissociation constant in test [2] stood at 0.227 µM; in test [4], 0.608 µM; in test [11] it was 0.248 µM; in [8] it was 0.145 µM. Moreover, the binding entry in test [12] is listed as “yes”.

Regarding `Cc1ccc([N+](=O)[O-])c2c(NCCO)c3ccccc3nc12`, the binding result in test [10] (weaker than C-283) and in test [7] (setting [13]) was “weak” throughout.

Values taken from PMC9977845 (2023).
